{"source": "patent US5559115A", "about": "“Oncogene function-inhibitory agent, method for inhibiting oncogene function, and treatment of cancer” (Terumo Kabushiki Kaisha, priority 1993, dated 1996)", "key": {"mouse": {"tested_on": "mouse", "assay": "Acute toxicity (LD50) on mouse upon intravenous injection", "type": "in vivo", "conditions": "compared to conventional alkaloid carcinostatics of plant origin", "experimental": "(§1) Toxicity (LD50) on mouse of III-121C upon intravenous injection was measured."}, "[1]": {"assay": "Acute toxicity (LD50) on mouse upon intravenous injection", "type": "in vivo", "conditions": "in vivo, intravenous injection", "experimental": "as §1"}, "K-ras^ts-NRK cells [2]": {"tested_on": "K-ras^ts-NRK cells", "assay": "Effect on production of actin filaments, K-ras^ts-NRK cells", "type": "cell-based, rat", "conditions": "1 μg/ml, one day", "experimental": "(§2) A cover glass with a diameter of 18 mm (manufactured by Matsunami Glass Industry K.K.) that had been washed with 100% ethanol, dried, and sterilized was placed in wells of 12 wells plastic plate, and the cells were inoculated in the wells at 3.0×10^4 /DMEM 1 ml/well. The plate was incubated in an incubator of 5% CO2 for 1 day. To the thus incubated cell culture was added 1 μg/ml of III-121C, and the incubation was continued for another one day. The cell culture was then fixed with paraformaldehyde. The fixed cell culture was reacted with rhodamine pharoidine reagent (Molecular Probe Inc.) to examine the cell morphology by fluorescence microscope with G filter (excitation, 546 nm)."}, "K-ras^ts NRK cells": {"tested_on": "K-ras^ts NRK cells", "assay": "Propagation inhibitory effect on K-ras^ts NRK cells", "type": "cell-based, rat", "conditions": "for IC50: Rattus norvegicus, NRK, 72 h, K-ras^ts NRK, 3 days, read-out: IC50, cell propagation", "experimental": "(§3) Normal rat kidney cell, NRK-49 (Dainihon Pharmaceutical K.K.) and normal mouse cell, NIH 3T3 (JCRB Cell Bank); and K-ras NIH 3T3, H-ras NIH 3T3, and N-ras NIH 3T3 (Tokyo University, Medical Science Institute, Japan) which are cell lines that have been transformed with Kirsten sarcoma virus, Harvey sarcoma virus, and neuroblastoma virus, respectively, were incubated at 37° C. in the similar manner.\nCells of K-ras^ts -NRK were inoculated in wells of 24 wells plastic plate (Costar 3524, manufactured by Costar) at 1.0×10^4 /DMEM 1 ml/well, and the plate was incubated in an incubator of 5% CO2 at 33° C. for one day. III-121C was added to the thus incubated cells to different concentrations and the incubation was continued. After predetermined periods, the medium was removed of the cell culture, and cells were peeled off the wall of the well by using trypsin. DMEM was added to the well to uniformly suspend the cells, and the cell concentration in the suspension was measured with Coulter counter (ZM type manufactured by Coulter Electronics) to obtain the results shown in FIG. 7.\n(§4) Next, cells of different types were inoculated in wells of 12 wells plastic plate (Costar 3521, manufactured by Costar) at 2.0×10^4 /DMEM 1 ml/well, and the plate was incubated in an incubator of 5% CO2 for one day. III-121C was added to the thus incubated cells to different concentrations and incubation was continued for another 3 days. The number of cells was measured by repeating the above-described procedure to determine the concentration (IC50) of the III-121C required to inhibit the cell propagation to 50%."}, "cancer cell": {"tested_on": "cancer cell", "assay": "50% inhibition of cancer cell propagation, various cell lines", "type": "cell-based", "conditions": "varies by type of cancer cell; approximately; Table 1; read-out: concentration (IC50) required for 50% inhibition of the cancer cell propagation", "experimental": "as §4"}, "K-ras-NIH 3T3 cells [3]": {"tested_on": "K-ras-NIH 3T3 cells", "assay": "Activity to induce changes in cell morphology, K-ras-NIH 3T3 cells", "type": "cell-based, mouse", "conditions": "0.3 μg/ml, 2 days", "experimental": "as §3\n(§5) The effect of the III-121C on various types of cultured cells was evaluated by inoculating each type of cells in wells of 24 wells plastic plate (Costar 3524, manufactured by Costar) at 3×10^4 cells/1 ml medium/well; incubating the plate in an incubator of 5% CO2 for one day; and adding the III-121C sample to the cell cultures to observe the cell morphology for another two days.\nK-ras-NIH 3T3 and H-ras-NIH 3T3 are transformed cell lines, and the cells are elongated with projections or processes on their surface, and grow atop the other. N-ras-NIH 3T3 cells are also elongated and their projections or processes are even longer."}, "RSV NRK cells": {"tested_on": "RSV NRK cells", "assay": "Propagation inhibitory effect on RSV NRK cells", "type": "cell-based", "conditions": "Rattus norvegicus, 72 h, 33° C., 3 days, read-out: IC50, cell propagation"}, "K-ras-NRK cells [4]": {"tested_on": "K-ras-NRK cells", "assay": "Activity to induce changes in cell morphology, K-ras-NRK cells", "type": "cell-based, rat", "conditions": "0.3 μg/ml, 2 days", "experimental": "as §5\nK-ras-NRK is a transformed cell line, and the cells appear round with its central portion raised."}, "K-ras-NIH 3T3 cells [5]": {"tested_on": "K-ras-NIH 3T3 cells", "assay": "Effect on production of actin filaments, K-ras-NIH 3T3 cells", "type": "cell-based, mouse", "conditions": "1 μg/ml, one day", "experimental": "as §2"}, "cell morphology": {"tested_on": "cell morphology", "assay": "Cell morphology normalizing activity (extract, fractions, purified product)", "type": "cell-based", "experimental": "The inventors of the present invention then succeeded in the isolation and characterization of the active component in the extract. The present invention has been completed on the bases of such study.\nTo a small amount of chloroform was dissolved 1.34 g of the extract, and the resulting solution was charged in a column having packed therein 10 g of silica gel (Merck silicagel 60, manufactured by Merck). To the column was first added 100% chloroform to elute the impurities, and then, 100:1 chloroform:methanol was added and the eluate was fractionated into portions of about 10 ml. Each fraction was examined by thin layer chromatography (silica gel; 20:1 chloroform:methanol solvent; UV 330 nm), and fractions having an Rf of 0.56 with blue color were collected.\nThe thus obtained active substance was dissolved in a small amount of methanol. After removing the precipitates, the solution was charged in a column of Toyopearl HW-40 that had been equilibrated with methanol to thereby carry out the gel filtration chromatography. The column was eluted with 100% methanol and 3 ml fractions were collected. The thus collected fractions were analyzed by thin layer chromatography using 20:1 chloroform:methanol for the developer. […] This substance is hereinafter referred to as III-121C."}, "N-ras-NIH 3T3 cells": {"tested_on": "N-ras-NIH 3T3 cells", "assay": "Propagation inhibitory effect on N-ras-NIH 3T3 cells", "type": "cell-based", "conditions": "Mus musculus, NIH3T3, 72 h; N-ras-NIH 3T3, 3 days; read-out: IC50, cell propagation", "experimental": "as §3, §4"}, "K-ras-NRK cells [6]": {"tested_on": "K-ras-NRK cells", "assay": "Action mechanism: flow-cytometric DNA content analysis of K-ras-NRK cells", "type": "cell-based, rat", "conditions": "24 hours; III-121C 0.3 and 1 μg/ml, vinblastine 0.1 μg/ml (FIG. 11)", "experimental": "FIGS. 11(a) to (d) are graphs showing the results of flow-cytometric analysis wherein the number of cells is depicted in relation to their DNA content, upon addition of no reagent (FIG. 11(a)), 0.3 μg/ml of III-121C (FIG. 11(b)), 1 μg/ml of III-121C (FIG. 11(c)), and 0.1 μg/ml of vinblastine (FIG. 11(d)) to the K-ras NRK cell culture.\nTo the cells of K-ras-NRK in their propagation was added either one of III-121C and vinblastine. No reagent was added to the control cells. After 24 hours from the addition, the cells were fractionated with a cell sorter to examine the DNA quantity in relation to the number of the cells."}, "K-ras-NRK cells [7]": {"tested_on": "K-ras-NRK cells", "assay": "Effect on production of actin filaments, K-ras-NRK cells", "type": "cell-based, rat", "conditions": "1 μg/ml, one day", "experimental": "as §2"}, "K-ras^ts-NRK cells [8]": {"tested_on": "K-ras^ts-NRK cells", "assay": "Activity to induce changes in cell morphology, K-ras^ts-NRK cells", "type": "cell-based, rat", "conditions": "2 days", "experimental": "as §3, §5"}}, "note": "Entries after “also recorded” stand apart in the source; their conditions may differ. Read-outs that look alike come from different tables or passages of the source."}
{"smiles": "CCC12CC(C(=O)OC)=C3Nc4cc5c(cc4C34CCN(CC3OC31)C42)C1C(O5)C(O)C2(CC)CC(C(=O)OC)=C3Nc4c(cc(O)c(OC)c4OC)C34CCN1C42", "note": "(stereo not drawn) [III-121C]", "values": [{"measurement": "acute toxicity in words", "setting": "mouse", "result": "weaker toxicity; also recorded: low acute toxicity"}, {"measurement": "LD50", "setting": "[1]", "result": 24.3, "unit": "mg/kg"}, {"measurement": "actin filaments / cell morphology", "setting": "K-ras^ts-NRK cells [2]", "result": "morphology of normal cells with longitudinally extending linear actin filaments"}, {"measurement": "cell propagation inhibition (cell growth curve, FIG. 7)", "setting": "K-ras^ts NRK cells; K-ras^ts-NRK, 33° C., different concentrations", "result": "inhibited the cell propagation in concentration dependent manner"}, {"measurement": "IC50", "setting": "K-ras^ts NRK cells; 33° C.", "result": 0.29, "unit": "µg/mL"}, {"measurement": "IC50", "setting": "K-ras^ts NRK cells; 39° C.", "result": 0.2, "unit": "µg/mL"}, {"measurement": "IC50", "setting": "cancer cell", "result": "0.1 to 0.5", "unit": "µg/mL"}, {"measurement": "change in cell morphology and growth habits", "setting": "K-ras-NIH 3T3 cells [3]", "result": "the cells changed their morphology and growth habits to those of normal NIH 3T3 cells, and became flat with an increased area of contact"}, {"measurement": "IC50", "setting": "RSV NRK cells", "result": 0.11, "unit": "µg/mL"}, {"measurement": "change in cell morphology and growth habits", "setting": "K-ras-NRK cells [4]", "result": "the cells changed their morphology and growth habits to those of normal cells, and became flat with an increased area of contact"}, {"measurement": "actin filaments / cell morphology", "setting": "K-ras-NIH 3T3 cells [5]", "result": "morphology of normal cells with longitudinally extending linear actin filaments"}, {"measurement": "activity of normalizing the cell morphology", "setting": "cell morphology", "result": "confirmed to have an activity of normalizing the cell morphology"}, {"measurement": "IC50", "setting": "N-ras-NIH 3T3 cells", "result": 0.12, "unit": "µg/mL"}, {"measurement": "cell cycle / cell division inhibition", "setting": "K-ras-NRK cells [6]", "result": "Absence of the cell division inhibitory activity"}, {"measurement": "distribution of DNA quantity in cells", "setting": "K-ras-NRK cells [6]", "result": "distribution of the DNA quantity in the cells was identical with that of the control cells"}, {"measurement": "actin filaments / cell morphology", "setting": "K-ras-NRK cells [7]", "result": "morphology of normal cells with longitudinally extending linear actin filaments"}, {"measurement": "change in cell morphology and growth habits", "setting": "K-ras^ts-NRK cells [8]; 33° C., 0.3 μg/ml", "result": "the cells changed their morphology and growth habits to those of normal cells"}, {"measurement": "change in cell morphology and growth habits", "setting": "K-ras^ts-NRK cells [8]; 39° C.", "result": "the cell morphology and growth habits were the same as the K-ras^ts -NRK cells that had been incubated in the absence of III-121C"}]}
